From patent US20020016384A1, “Hydrolysis-stable and polymerizable acrylophosphonic acid” (Ivoclar Vivadent AG., priority 2000, published 2002)

How the values were obtained:
[1] = Investigation of the solubility in water and organic solvents; assay type: physicochemical
Text: The solubility of monomers 3 and 5 and of a comparison monomer (comparison monomer 2; X=COO, Z=H) in water, ethanol, acetone, methylene chloride and ethyl acetate was investigated.
Solubility: ++: very good (>20 wt.-%), +: good (10-20 wt.-%), 0: practically insoluble (<1 wt.-%). [drawing 25]

[2] = Investigation of the hydrolytic stability by 1H-NMR; assay type: physicochemical; conditions: 20% solution in 1:1 water/ethanol; for change in the 1H-NMR spectrum (hydrolytic stability): stored at 37° C., 12-week investigation period, spectrum recorded weekly
Method: Monomers 3 and 5 are each dissolved in a 1:1 mixture of water and ethanol and stored as 20% solution at 37° C. The ^1H-NMR spectrum of the solution is recorded weekly.

SMILES | Solubility in acetone [1] | Solubility in ethanol [1] | Solubility in ethyl acetate [1] | Solubility in methylene chloride [1] | Solubility in water [1] | change in the 1H-NMR spectrum (hydrolytic stability) [2] | hydrolytic elimination of the ethoxy group ([2]; 37° C., after 3 months, 1H-NMR) [%]
C=C(COCCP(=O)(O)O)C(=O)O [Comparison monomer 2, reference compound] | 0 (practically insoluble (<1 wt.-%)) | 0 (practically insoluble (<1 wt.-%)) | 0 (practically insoluble (<1 wt.-%)) | 0 (practically insoluble (<1 wt.-%)) | ++ (very good (>20 wt.-%)) |  | 
C=C(COCCP(=O)(O)O)C(=O)N(CC)CC [Monomer 3, 2-[4-(dihydroxyphosphoryl)-2-oxabutyl]-acrylic acid diethylamide] | ++ (very good (>20 wt.-%)) | ++ (very good (>20 wt.-%)) | ++ (very good (>20 wt.-%)) | ++ (very good (>20 wt.-%)) | ++ (very good (>20 wt.-%)) | no change in the spectrum | 
C=C(C#N)COCCP(=O)(O)O [Monomer 5, 2-[4-(dihydroxyphosphoryl)-2-oxabutyl]-acrylonitrile] | ++ (very good (>20 wt.-%)) | ++ (very good (>20 wt.-%)) | ++ (very good (>20 wt.-%)) | ++ (very good (>20 wt.-%)) | ++ (very good (>20 wt.-%)) | no change in the spectrum | 
C=C(COCCP(=O)(OC)OC)C(=O)OCC [comparison monomer 1, 2-[4-(dimethoxyphosphoryl)-2-oxa-butyl]-acrylic acid ethyl ester, reference compound] |  |  |  |  |  |  | 20
